Results taken from the NIST ThermoML archive (doi:10.1021/je049652j).
± gives the expanded uncertainty stated by the source.

Test: molar heat capacity at constant pressure
Conditions: 101.33 kPa, Liquid

| Compound | molar heat capacity at constant pressure (284.15 K) | molar heat capacity at constant pressure (286.65 K) | molar heat capacity at constant pressure (289.15 K) | molar heat capacity at constant pressure (291.65 K) | molar heat capacity at constant pressure (294.15 K) | molar heat capacity at constant pressure (296.65 K) | molar heat capacity at constant pressure (299.15 K) | molar heat capacity at constant pressure (301.65 K) | molar heat capacity at constant pressure (304.15 K) | molar heat capacity at constant pressure (306.65 K) | molar heat capacity at constant pressure (309.15 K) | molar heat capacity at constant pressure (311.65 K) | molar heat capacity at constant pressure (314.15 K) | molar heat capacity at constant pressure (316.65 K) | molar heat capacity at constant pressure (319.15 K) | molar heat capacity at constant pressure (321.65 K) | molar heat capacity at constant pressure (324.15 K) | molar heat capacity at constant pressure (326.65 K) | molar heat capacity at constant pressure (329.15 K) | molar heat capacity at constant pressure (331.65 K) | also measured |
| --- | --- | --- | --- | --- | --- | --- | --- | --- | --- | --- | --- | --- | --- | --- | --- | --- | --- | --- | --- | --- | --- |
| CCCCCCCl [1-chlorohexane] | 212.36 ± 1.1 J/K/mol | 213.23 ± 1.1 J/K/mol | 213.91 ± 1.1 J/K/mol | 214.63 ± 1.1 J/K/mol | 215.4 ± 1.1 J/K/mol | 216.12 ± 1.1 J/K/mol | 216.95 ± 1.1 J/K/mol | 217.75 ± 1.1 J/K/mol | 218.44 ± 1.1 J/K/mol | 219.22 ± 1.1 J/K/mol | 219.99 ± 1.1 J/K/mol | 221 ± 1.1 J/K/mol | 221.78 ± 1.1 J/K/mol | 222.49 ± 1.1 J/K/mol | 223.43 ± 1.1 J/K/mol | 224.31 ± 1.1 J/K/mol | 224.7 ± 1.1 J/K/mol | 226.02 ± 1.1 J/K/mol | 227.13 ± 1.1 J/K/mol | 228.86 ± 1.1 J/K/mol | molar heat capacity at constant pressure (334.15 K): 228.99 ± 1.1 J/K/mol; molar heat capacity at constant pressure (336.65 K): 229.44 ± 1.1 J/K/mol; molar heat capacity at constant pressure (339.15 K): 230.06 ± 1.1 J/K/mol; molar heat capacity at constant pressure (341.65 K): 231.22 ± 1.2 J/K/mol; molar heat capacity at constant pressure (344.15 K): 231.83 ± 1.2 J/K/mol; molar heat capacity at constant pressure (346.65 K): 232.32 ± 1.2 J/K/mol; molar heat capacity at constant pressure (349.15 K): 233.18 ± 1.2 J/K/mol; molar heat capacity at constant pressure (351.65 K): 234.56 ± 1.2 J/K/mol; molar heat capacity at constant pressure (353.15 K): 235.17 ± 1.2 J/K/mol |
| CCCCCCCCCl [1-chlorooctane] | 269.76 ± 1.4 J/K/mol | 270.79 ± 1.4 J/K/mol | 271.83 ± 1.4 J/K/mol | 272.66 ± 1.4 J/K/mol | 273.66 ± 1.4 J/K/mol | 274.53 ± 1.4 J/K/mol | 275.61 ± 1.4 J/K/mol | 276.52 ± 1.4 J/K/mol | 277.29 ± 1.4 J/K/mol | 278.37 ± 1.4 J/K/mol | 279.28 ± 1.4 J/K/mol | 280.5 ± 1.4 J/K/mol | 281.58 ± 1.4 J/K/mol | 282.47 ± 1.4 J/K/mol | 283.79 ± 1.4 J/K/mol | 284.92 ± 1.4 J/K/mol | 285.45 ± 1.4 J/K/mol | 286.81 ± 1.4 J/K/mol | 288.43 ± 1.4 J/K/mol | 289.95 ± 1.4 J/K/mol | molar heat capacity at constant pressure (334.15 K): 290.13 ± 1.4 J/K/mol; molar heat capacity at constant pressure (336.65 K): 291.34 ± 1.5 J/K/mol; molar heat capacity at constant pressure (339.15 K): 291.91 ± 1.5 J/K/mol; molar heat capacity at constant pressure (341.65 K): 293.56 ± 1.5 J/K/mol; molar heat capacity at constant pressure (344.15 K): 294.16 ± 1.5 J/K/mol; molar heat capacity at constant pressure (346.65 K): 294.82 ± 1.5 J/K/mol; molar heat capacity at constant pressure (349.15 K): 295.79 ± 1.5 J/K/mol; molar heat capacity at constant pressure (351.65 K): 297.21 ± 1.5 J/K/mol; molar heat capacity at constant pressure (353.15 K): 298.14 ± 1.5 J/K/mol |
| CCCCCCl [1-chloropentane] | 184.57 ± 0.92 J/K/mol | 185.29 ± 0.93 J/K/mol | 185.95 ± 0.93 J/K/mol | 186.52 ± 0.93 J/K/mol | 187.16 ± 0.94 J/K/mol | 187.66 ± 0.94 J/K/mol | 188.46 ± 0.94 J/K/mol | 189.19 ± 0.95 J/K/mol | 189.81 ± 0.95 J/K/mol | 190.32 ± 0.95 J/K/mol | 190.99 ± 0.95 J/K/mol | 191.89 ± 0.96 J/K/mol | 192.65 ± 0.96 J/K/mol | 193.22 ± 0.97 J/K/mol | 194.09 ± 0.97 J/K/mol | 194.69 ± 0.97 J/K/mol | 195.06 ± 0.98 J/K/mol | 196.14 ± 0.98 J/K/mol | 196.99 ± 0.98 J/K/mol | 197.64 ± 0.99 J/K/mol | molar heat capacity at constant pressure (334.15 K): 198.46 ± 0.99 J/K/mol; molar heat capacity at constant pressure (336.65 K): 199.23 ± 1 J/K/mol; molar heat capacity at constant pressure (339.15 K): 199.92 ± 1 J/K/mol; molar heat capacity at constant pressure (341.65 K): 200.41 ± 1 J/K/mol; molar heat capacity at constant pressure (344.15 K): 201.19 ± 1 J/K/mol; molar heat capacity at constant pressure (346.65 K): 201.73 ± 1 J/K/mol; molar heat capacity at constant pressure (349.15 K): 202.54 ± 1 J/K/mol; molar heat capacity at constant pressure (351.65 K): 203.57 ± 1 J/K/mol; molar heat capacity at constant pressure (353.15 K): 204.24 ± 1 J/K/mol |
| CCCCl [1-chloropropane] | 128.63 ± 0.64 J/K/mol | 128.99 ± 0.64 J/K/mol | 129.53 ± 0.65 J/K/mol | 130.1 ± 0.65 J/K/mol | 130.47 ± 0.65 J/K/mol | 130.95 ± 0.65 J/K/mol | 131.33 ± 0.66 J/K/mol | 131.88 ± 0.66 J/K/mol | 132.37 ± 0.66 J/K/mol | 132.94 ± 0.66 J/K/mol | 133.4 ± 0.67 J/K/mol | 133.92 ± 0.67 J/K/mol | 134.38 ± 0.67 J/K/mol | – | – | – | – | – | – | – | – |
| CCBr [bromoethane] | 105.63 ± 0.53 J/K/mol | 105.91 ± 0.53 J/K/mol | 106.14 ± 0.53 J/K/mol | 106.42 ± 0.53 J/K/mol | 106.75 ± 0.53 J/K/mol | 107.09 ± 0.54 J/K/mol | 107.42 ± 0.54 J/K/mol | – | – | – | – | – | – | – | – | – | – | – | – | – | molar heat capacity at constant pressure (269.15 K): 104.07 ± 0.52 J/K/mol; molar heat capacity at constant pressure (271.65 K): 104.37 ± 0.52 J/K/mol; molar heat capacity at constant pressure (274.15 K): 104.6 ± 0.52 J/K/mol; molar heat capacity at constant pressure (276.65 K): 104.85 ± 0.52 J/K/mol; molar heat capacity at constant pressure (279.15 K): 105.14 ± 0.53 J/K/mol; molar heat capacity at constant pressure (281.65 K): 105.42 ± 0.53 J/K/mol |
